From patent US20250215052A1, “INHIBITORS OF PICK1 AND USES THEREOF” (University of Copenhagen, priority 2018, published 2025)

Key:
PICK1 = experiment: Peptide accumulation in striatal neurons with PICK1 knock down or replacement; assay type: cell-based, rat; conditions: 5 nM, 1 hour
Source text: For shRNA-mediated knock down and replacement studies of PICK1, striatal neurons were transduced at 14 DIV with three different lentivirus; FUGWH1sh18GFPPICK1 (GFP-PICK1WT), FUGWH1sh18eGFP (GFP-sh18) or FUGWH1sh18deleGFP (GFP). The replacement plasmid GFP-PICK1WT expresses a short hairpin (sh18) that targets endogenous PICK1 and a resistant eGFP tagged PICK1. The GFP control vector (GFP) was created by removing the short hairpin (Holst et al., 2013, Jensen et al., 2018). Lentiviruses were produced as described previously (Rasmussen et al., 2009).
Neurons were rinsed in PBS and blocked in 0.05% Triton-X100 with 5% goat serum for 20 min-at room temperature. Subsequently, neurons were labelled with rabbit anti-DARRP32 (1:800) and chicken anti-GFP (1:2000) for 1 hour at room temperature, before incubation with 1:500 goat anti-rabbit Alexa-647 and goat anti-chicken Alexa-488 secondary antibodies.
Images for quantification of peptide were acquired with a Zeiss LSM 710 laser-scanning microscopy. Quantification of the TMR-TAT-P4-(C5)2 intensity was performed by defining each neuron as a region of interest. The mean intensity values obtained from each neuron were subsequently normalized to the average of the intensity values of the GFP transduced neurons

[1] = target: T1, PICK1 pre-bound to TacDAT C24 (Rattus norvegicus, UniProt Q9EP80); experiment: SCMS dissociation of pre-bound PICK1; assay type: binding; conditions: pre-bound PICK1 on TacDAT C24 SCMS
T1 construct: Partner: transfected HEK293-GT cells, ruptured into membrane sheets
T1 sequence (Q9EP80 whole entry): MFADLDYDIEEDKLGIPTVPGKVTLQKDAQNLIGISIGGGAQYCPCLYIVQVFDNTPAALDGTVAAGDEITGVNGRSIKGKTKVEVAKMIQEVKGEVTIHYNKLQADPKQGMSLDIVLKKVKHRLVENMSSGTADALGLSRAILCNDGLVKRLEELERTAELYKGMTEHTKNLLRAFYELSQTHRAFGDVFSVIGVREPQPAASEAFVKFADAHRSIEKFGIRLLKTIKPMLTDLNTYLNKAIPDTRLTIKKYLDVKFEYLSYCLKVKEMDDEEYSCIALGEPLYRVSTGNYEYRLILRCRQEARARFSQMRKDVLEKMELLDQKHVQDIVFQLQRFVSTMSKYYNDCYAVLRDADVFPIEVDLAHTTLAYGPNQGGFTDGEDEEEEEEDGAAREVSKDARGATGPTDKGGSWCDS
Description: Human Embryo Kidney 293 GripTite cells (HEK293-GT) for SCMS were grown i in Dulbecco's modified Eagle's medium 1965 with fetal calf serum and pen-strep antibiotics. Cells were transfected using TAC-YFP-DATC24 DNA (pEYFP-C1 vector) and lipovectamin in opti-MEM® overnight. Cells were washed once with PBS and detached using 0.5% Trypsin with EDTA. Cells were then seeded into 6-well plates and allowed to grow and attach overnight at 37° C. in humidified 10% CO2 atmosphere.
The SCMS was prepared as described in (Perez et al., 2006). In brief, round cover glasses were plasma cleaned and coated with 0.3 mM poly-L-ornithine hydrobromide (Poly-ORN) for 30 min. The coating Poly-ORN was then removed. Seeded and transfected cells were then washed twice to allow them to swell. The swelled cells were then covered with the cover glass with the Poly-ORN coated side facing down on the cells. Dynamic pressure was manually applied to the cover glass using the piston from a 12 ml plastic syringe for a total of 1 min. The force from removing the cover glass causes some cells to rupture and leave a SCMS on the surface of the cover glass. […] A protein solution was then added to the cover glass and left to incubate for the desired amount of time depending on the experiment. […] The protein: peptide solution was then added to the SCMS-cover glass and incubated for 2 hours. […]

Plasma stability = assay type: in vitro ADME; conditions: human, 37° C., 24 h incubation
Description: (§1) 360 μL undiluted human male serum (Sigma; H4522) or PBS was kept at 37° C. for 15 min, followed by addition of 40 μL (500 uM) of relevant peptide and subsequent incubation at 37° C. For stability analysis, 45 μL samples was taken out at t=0 min and t=24 hrs, and samples quenched by addition of 50 μL 6M urea followed by incubation at 37° C. for additional 30 min. 50 μL 20% TCA (W7V) in acetone was added to each sample before incubation for at least 16 hrs at 5° C. Samples were centrifuged at 14.000×g for 30 min and supernatants collected and filtered using a 0.22 μm syringe filter. Samples were analyzed on an Acquity UPLC H-Class instrument using a C18 column with a 15 min 10-80% […] gradient. Remaining analyte (%) was calculated as the area under curve (AUC) of the main peak at indicated time points relative to the sample at t=0 min.

PBS stability = assay type: physicochemical; conditions: 37° C., 24 hrs
Description: as §1

| Compound | peptide signal in sh18 + GFP-PICK1 neurons vs control (GFP) (PICK1) | dissociation of pre-bound PICK1 from SCMSs [1] | plasma stability (Plasma stability) | stability in PBS (PBS stability) |
| --- | --- | --- | --- | --- |
| TAMRA-YGRKKRRQRRR-PEG4-(HWLKV)2 [TMR-TAT-P4-(C5)2] | significantly increased | – | – | – |
| CC(C)C[C@H](NC(=O)[C@H](Cc1c[nH]c2ccccc12)NC(=O)[C@@H](N)Cc1cnc[nH]1)C(=O)N[C@@H](CCCCN)C(=O)N[C@H](C(=O)O)C(C)C [C5, HWLKV] | – | neither C5 nor TAT-(C5) could significantly dissociated PICK1 from SCMSs | full degradation | good stability in PBS |
